Measured values as given in ChEMBL document CHEMBL4507278 (2021).

How the values were obtained:
[1] = system: Tyrosine-protein kinase ABL1 (Homo sapiens), P00519 [H396P]; settings: Compound concentration 1000.0 nM
[2] = molecular target: Tyrosine-protein kinase ABL2 (Homo sapiens) (UniProt P42684); settings: Compound concentration 1000.0 nM
[3] = molecular target: Activin receptor type-1B (Homo sapiens) (UniProt P36896); settings: Compound concentration 1000.0 nM
[4] = molecular target: RAC-gamma serine/threonine-protein kinase (Homo sapiens) (UniProt Q9Y243); settings: Compound concentration 1000.0 nM
[5] = molecular target: Mitogen-activated protein kinase kinase kinase 6 (Homo sapiens) (UniProt O95382); settings: Compound concentration 1000.0 nM
[6] = molecular target: Calcium/calmodulin-dependent protein kinase type II subunit beta (Homo sapiens) (UniProt Q13554); settings: Compound concentration 1000.0 nM
[7] = molecular target: Calcium/calmodulin-dependent protein kinase type II subunit gamma (Homo sapiens) (UniProt Q13555); settings: Compound concentration 1000.0 nM
[8] = molecular target: Calcium/calmodulin-dependent protein kinase type IV (Homo sapiens) (UniProt Q16566); settings: Compound concentration 1000.0 nM
[9] = molecular target: Cyclin-dependent kinase 7 (Homo sapiens) (UniProt P50613); settings: Compound concentration 1000.0 nM
[10] = molecular target: Dual specificity protein kinase CLK3 (Homo sapiens) (UniProt P49761); settings: Compound concentration 1000.0 nM
[11] = molecular target: Megakaryocyte-associated tyrosine-protein kinase (Homo sapiens) (UniProt P42679); settings: Compound concentration 1000.0 nM
[12] = molecular target: Dual specificity tyrosine-phosphorylation-regulated kinase 1A (Homo sapiens) (UniProt Q13627); settings: Compound concentration 1000.0 nM
[13] = system: Epidermal growth factor receptor (Homo sapiens), P00533 [L861Q]; settings: Compound concentration 1000.0 nM
[14] = molecular target: Ephrin type-B receptor 6 (Homo sapiens) (UniProt O15197); settings: Compound concentration 1000.0 nM
Sequence of Ephrin type-B receptor 6 (Homo sapiens) (O15197 whole entry): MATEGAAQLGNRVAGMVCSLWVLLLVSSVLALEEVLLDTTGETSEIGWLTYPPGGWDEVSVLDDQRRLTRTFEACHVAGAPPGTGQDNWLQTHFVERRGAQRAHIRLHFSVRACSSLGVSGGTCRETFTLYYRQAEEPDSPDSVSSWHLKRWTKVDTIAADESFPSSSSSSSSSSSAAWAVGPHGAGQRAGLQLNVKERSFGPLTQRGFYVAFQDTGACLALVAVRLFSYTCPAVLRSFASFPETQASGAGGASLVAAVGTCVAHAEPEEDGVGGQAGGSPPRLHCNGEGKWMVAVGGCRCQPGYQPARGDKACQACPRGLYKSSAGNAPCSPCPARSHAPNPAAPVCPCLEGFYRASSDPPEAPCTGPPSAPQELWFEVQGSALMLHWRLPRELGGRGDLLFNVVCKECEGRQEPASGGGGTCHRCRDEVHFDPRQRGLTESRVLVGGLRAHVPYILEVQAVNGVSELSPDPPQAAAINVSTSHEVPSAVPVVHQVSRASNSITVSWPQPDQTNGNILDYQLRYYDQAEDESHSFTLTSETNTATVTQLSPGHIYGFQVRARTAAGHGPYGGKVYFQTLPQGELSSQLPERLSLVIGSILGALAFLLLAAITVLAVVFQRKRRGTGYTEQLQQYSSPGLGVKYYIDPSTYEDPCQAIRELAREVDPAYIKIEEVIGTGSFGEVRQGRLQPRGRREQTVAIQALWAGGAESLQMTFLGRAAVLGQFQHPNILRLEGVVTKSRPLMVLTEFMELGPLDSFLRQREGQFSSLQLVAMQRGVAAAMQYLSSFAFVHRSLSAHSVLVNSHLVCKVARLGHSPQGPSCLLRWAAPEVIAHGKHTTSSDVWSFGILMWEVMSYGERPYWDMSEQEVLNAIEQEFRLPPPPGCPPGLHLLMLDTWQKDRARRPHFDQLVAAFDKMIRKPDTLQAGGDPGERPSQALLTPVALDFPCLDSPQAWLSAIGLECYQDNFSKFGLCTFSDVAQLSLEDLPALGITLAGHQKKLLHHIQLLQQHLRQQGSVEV

[15] = molecular target: Mitogen-activated protein kinase 6 (Homo sapiens) (UniProt Q16659); settings: Compound concentration 1000.0 nM
[16] = molecular target: Rhodopsin kinase GRK7 (Homo sapiens) (UniProt Q8WTQ7); settings: Compound concentration 1000.0 nM
Sequence of Rhodopsin kinase GRK7 (Homo sapiens) (Q8WTQ7 whole entry): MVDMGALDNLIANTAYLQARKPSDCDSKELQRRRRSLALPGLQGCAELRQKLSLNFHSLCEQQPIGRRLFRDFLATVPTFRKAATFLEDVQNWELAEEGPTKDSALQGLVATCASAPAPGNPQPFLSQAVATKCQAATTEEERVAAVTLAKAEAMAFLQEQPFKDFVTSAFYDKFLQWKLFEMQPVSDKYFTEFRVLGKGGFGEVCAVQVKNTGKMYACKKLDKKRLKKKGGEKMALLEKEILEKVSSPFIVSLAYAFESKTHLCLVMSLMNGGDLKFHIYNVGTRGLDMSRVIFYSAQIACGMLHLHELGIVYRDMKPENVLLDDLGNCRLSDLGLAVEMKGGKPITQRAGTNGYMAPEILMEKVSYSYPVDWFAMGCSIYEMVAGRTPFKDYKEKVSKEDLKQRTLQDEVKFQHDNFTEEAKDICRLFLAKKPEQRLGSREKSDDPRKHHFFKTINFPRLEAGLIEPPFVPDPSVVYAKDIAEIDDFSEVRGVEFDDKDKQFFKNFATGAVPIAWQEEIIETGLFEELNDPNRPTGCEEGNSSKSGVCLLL

[17] = molecular target: Tyrosine-protein kinase HCK (Homo sapiens) (UniProt P08631); settings: Compound concentration 1000.0 nM
[18] = molecular target: Inhibitor of nuclear factor kappa-B kinase subunit alpha (Homo sapiens) (UniProt O15111); settings: Compound concentration 1000.0 nM
[19] = molecular target: Tyrosine-protein kinase JAK1 (Homo sapiens) (UniProt P23458); settings: Compound concentration 1000.0 nM
[20] = molecular target: Mitogen-activated protein kinase 8 (Homo sapiens) (UniProt P45983); settings: Compound concentration 1000.0 nM
Sequence of Mitogen-activated protein kinase 8 (Homo sapiens) (P45983 whole entry): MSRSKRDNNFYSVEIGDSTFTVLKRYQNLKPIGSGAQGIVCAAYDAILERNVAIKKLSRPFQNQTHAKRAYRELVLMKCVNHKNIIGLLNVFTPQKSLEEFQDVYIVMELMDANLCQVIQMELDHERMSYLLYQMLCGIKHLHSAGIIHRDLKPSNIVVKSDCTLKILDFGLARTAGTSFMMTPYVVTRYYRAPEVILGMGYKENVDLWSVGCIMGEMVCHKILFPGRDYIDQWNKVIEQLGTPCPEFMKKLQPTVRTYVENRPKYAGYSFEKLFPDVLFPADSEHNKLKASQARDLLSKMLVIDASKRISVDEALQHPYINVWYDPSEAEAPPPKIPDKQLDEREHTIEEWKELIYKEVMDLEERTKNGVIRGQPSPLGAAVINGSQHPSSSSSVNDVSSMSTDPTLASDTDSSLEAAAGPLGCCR

[21] = system: Mast/stem cell growth factor receptor Kit (Homo sapiens), P10721 [A829P]; settings: Compound concentration 1000.0 nM
[22] = system: Mast/stem cell growth factor receptor Kit (Homo sapiens), P10721 [V559D,T670I]; settings: Compound concentration 1000.0 nM
[23] = molecular target: Maternal embryonic leucine zipper kinase (Homo sapiens) (UniProt Q14680); settings: Compound concentration 1000.0 nM
[24] = molecular target: Serine/threonine-protein kinase 24 (Homo sapiens) (UniProt Q9Y6E0); settings: Compound concentration 1000.0 nM
[25] = molecular target: Serine/threonine-protein kinase 38 (Homo sapiens) (UniProt Q15208); settings: Compound concentration 1000.0 nM
[26] = molecular target: Serine/threonine-protein kinase Nek9 (Homo sapiens) (UniProt Q8TD19); settings: Compound concentration 1000.0 nM
[27] = molecular target: Cyclin-dependent kinase 17 (Homo sapiens) (UniProt Q00537); settings: Compound concentration 1000.0 nM
[28] = molecular target: Platelet-derived growth factor receptor alpha (Homo sapiens) (UniProt P16234); settings: Compound concentration 1000.0 nM
Sequence of Platelet-derived growth factor receptor alpha (Homo sapiens) (P16234 whole entry, canonical isoform): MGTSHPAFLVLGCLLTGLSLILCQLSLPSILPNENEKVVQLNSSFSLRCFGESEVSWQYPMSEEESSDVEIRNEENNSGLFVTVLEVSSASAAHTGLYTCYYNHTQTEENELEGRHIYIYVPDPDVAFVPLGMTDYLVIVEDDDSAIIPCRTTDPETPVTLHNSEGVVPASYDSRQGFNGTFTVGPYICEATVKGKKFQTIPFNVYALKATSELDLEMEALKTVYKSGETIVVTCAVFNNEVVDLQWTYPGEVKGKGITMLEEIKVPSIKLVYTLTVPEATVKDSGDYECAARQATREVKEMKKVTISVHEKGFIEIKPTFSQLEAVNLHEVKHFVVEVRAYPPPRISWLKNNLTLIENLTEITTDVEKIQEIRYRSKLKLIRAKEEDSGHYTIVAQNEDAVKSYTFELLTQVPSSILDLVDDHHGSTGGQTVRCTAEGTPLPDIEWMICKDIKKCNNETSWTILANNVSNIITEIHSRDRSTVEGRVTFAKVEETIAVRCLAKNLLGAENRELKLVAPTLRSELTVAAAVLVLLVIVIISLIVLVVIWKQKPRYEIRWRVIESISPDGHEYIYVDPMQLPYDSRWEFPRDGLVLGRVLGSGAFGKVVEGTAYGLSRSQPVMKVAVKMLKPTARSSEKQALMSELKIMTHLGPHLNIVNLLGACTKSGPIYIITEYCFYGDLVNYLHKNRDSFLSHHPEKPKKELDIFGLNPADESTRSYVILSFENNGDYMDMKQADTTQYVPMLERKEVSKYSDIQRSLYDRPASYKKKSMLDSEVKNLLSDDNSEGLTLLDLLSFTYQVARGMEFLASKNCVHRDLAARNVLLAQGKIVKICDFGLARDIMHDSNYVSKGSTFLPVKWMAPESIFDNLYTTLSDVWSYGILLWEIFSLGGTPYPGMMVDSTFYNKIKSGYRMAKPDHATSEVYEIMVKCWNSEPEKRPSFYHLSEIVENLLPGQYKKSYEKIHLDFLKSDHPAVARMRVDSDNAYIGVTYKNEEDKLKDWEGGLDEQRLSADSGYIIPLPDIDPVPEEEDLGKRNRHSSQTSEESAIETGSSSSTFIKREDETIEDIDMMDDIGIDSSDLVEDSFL

[29] = molecular target: Phosphatidylinositol 4,5-bisphosphate 3-kinase catalytic subunit beta isoform (Homo sapiens) (UniProt P42338); settings: Compound concentration 1000.0 nM
[30] = molecular target: Ribosomal protein S6 kinase alpha-4 (Homo sapiens) (UniProt O75676); settings: Compound concentration 1000.0 nM
Sequence of Ribosomal protein S6 kinase alpha-4 (Homo sapiens) (O75676 whole entry, looked up): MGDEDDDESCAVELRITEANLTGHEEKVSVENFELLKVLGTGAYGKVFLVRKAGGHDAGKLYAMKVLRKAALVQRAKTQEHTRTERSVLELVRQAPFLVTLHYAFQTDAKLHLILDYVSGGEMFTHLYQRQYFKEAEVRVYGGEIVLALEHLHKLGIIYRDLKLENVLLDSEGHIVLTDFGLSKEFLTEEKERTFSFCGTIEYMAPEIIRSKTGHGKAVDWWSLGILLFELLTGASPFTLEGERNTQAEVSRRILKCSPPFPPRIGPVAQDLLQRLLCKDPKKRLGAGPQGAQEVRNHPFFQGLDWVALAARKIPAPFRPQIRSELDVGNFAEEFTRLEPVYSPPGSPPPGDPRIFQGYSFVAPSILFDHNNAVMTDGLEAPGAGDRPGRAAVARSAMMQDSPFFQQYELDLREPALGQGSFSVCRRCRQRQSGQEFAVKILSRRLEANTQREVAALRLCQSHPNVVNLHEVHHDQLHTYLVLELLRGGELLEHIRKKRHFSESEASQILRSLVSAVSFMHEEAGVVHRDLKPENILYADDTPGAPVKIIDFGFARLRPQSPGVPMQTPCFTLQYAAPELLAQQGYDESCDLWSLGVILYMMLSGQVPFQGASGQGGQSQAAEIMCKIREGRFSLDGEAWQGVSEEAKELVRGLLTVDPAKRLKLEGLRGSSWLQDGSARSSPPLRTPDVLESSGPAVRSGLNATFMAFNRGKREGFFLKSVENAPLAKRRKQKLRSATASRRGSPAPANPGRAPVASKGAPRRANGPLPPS

[31] = molecular target: Ribosomal protein S6 kinase alpha-5 (Homo sapiens) (UniProt O75582); settings: Compound concentration 1000.0 nM
[32] = molecular target: Serine/threonine-protein kinase 33 (Homo sapiens) (UniProt Q9BYT3); settings: Compound concentration 1000.0 nM
[33] = molecular target: Serine/threonine-protein kinase 35 (Homo sapiens) (UniProt Q8TDR2); settings: Compound concentration 1000.0 nM
Sequence of Serine/threonine-protein kinase 35 (Homo sapiens) (Q8TDR2 whole entry): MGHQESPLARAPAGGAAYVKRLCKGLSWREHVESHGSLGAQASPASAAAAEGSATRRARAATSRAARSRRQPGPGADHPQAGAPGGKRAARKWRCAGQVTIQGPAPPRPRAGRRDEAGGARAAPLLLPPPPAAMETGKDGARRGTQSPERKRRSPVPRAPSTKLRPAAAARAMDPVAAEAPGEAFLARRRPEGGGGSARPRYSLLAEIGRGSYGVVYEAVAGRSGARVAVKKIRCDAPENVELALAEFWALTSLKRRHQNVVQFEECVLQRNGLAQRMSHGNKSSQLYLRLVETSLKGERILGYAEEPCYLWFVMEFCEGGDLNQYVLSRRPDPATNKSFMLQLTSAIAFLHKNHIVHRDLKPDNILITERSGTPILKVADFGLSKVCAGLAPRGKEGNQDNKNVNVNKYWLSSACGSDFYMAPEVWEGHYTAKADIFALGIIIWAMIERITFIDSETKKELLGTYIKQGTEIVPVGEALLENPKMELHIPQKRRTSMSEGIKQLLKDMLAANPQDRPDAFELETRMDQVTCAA

[34] = molecular target: Serine/threonine-protein kinase TAO1 (Homo sapiens) (UniProt Q7L7X3); settings: Compound concentration 1000.0 nM
[35] = molecular target: Dual specificity testis-specific protein kinase 1 (Homo sapiens) (UniProt Q15569); settings: Compound concentration 1000.0 nM
[36] = molecular target: Serine/threonine-protein kinase 32A (Homo sapiens) (UniProt Q8WU08); settings: Compound concentration 1000.0 nM
Sequence of Serine/threonine-protein kinase 32A (Homo sapiens) (Q8WU08 whole entry): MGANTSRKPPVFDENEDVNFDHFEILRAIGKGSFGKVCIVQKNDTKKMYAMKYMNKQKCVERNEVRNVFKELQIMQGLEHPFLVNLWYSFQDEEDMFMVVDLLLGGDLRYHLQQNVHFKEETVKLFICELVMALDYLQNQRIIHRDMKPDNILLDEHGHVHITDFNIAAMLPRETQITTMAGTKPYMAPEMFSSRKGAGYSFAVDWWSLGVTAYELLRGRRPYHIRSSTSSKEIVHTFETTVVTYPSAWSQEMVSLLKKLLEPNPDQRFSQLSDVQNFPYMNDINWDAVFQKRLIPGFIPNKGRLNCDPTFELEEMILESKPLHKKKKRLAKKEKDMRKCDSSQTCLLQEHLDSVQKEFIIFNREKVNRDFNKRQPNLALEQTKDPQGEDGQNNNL

[37] = molecular target: Serine/threonine-protein kinase 32C (Homo sapiens) (UniProt Q86UX6); settings: Compound concentration 1000.0 nM
[38] = molecular target: 5-hydroxytryptamine receptor 2A (Homo sapiens) (UniProt P28223); settings: Compound concentration 10.0 uM
[39] = molecular target: T1, Alpha-2A adrenergic receptor (Homo sapiens) (UniProt P08913); settings: Compound concentration 10.0 uM
T1 sequence (whole entry): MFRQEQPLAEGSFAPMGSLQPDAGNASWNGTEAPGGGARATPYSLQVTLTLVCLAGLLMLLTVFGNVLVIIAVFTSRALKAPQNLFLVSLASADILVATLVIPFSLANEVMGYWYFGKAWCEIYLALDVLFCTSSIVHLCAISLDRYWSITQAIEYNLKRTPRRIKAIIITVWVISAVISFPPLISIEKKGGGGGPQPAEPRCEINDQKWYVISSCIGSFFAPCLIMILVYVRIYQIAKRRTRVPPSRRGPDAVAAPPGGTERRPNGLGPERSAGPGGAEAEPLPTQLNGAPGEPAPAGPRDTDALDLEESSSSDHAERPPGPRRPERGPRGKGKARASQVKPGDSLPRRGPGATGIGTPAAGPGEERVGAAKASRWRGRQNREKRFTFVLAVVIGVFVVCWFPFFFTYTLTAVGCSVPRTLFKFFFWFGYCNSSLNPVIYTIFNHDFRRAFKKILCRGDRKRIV

CS(=O)(=O)c1cc(C2(NC(=O)c3cncc4c3cnn4-c3ccc(F)cc3)CC2)ccn1 [BI 639667]
inactive: residual activity [1] 100% | residual activity [2] 95% | residual activity [3] 100% | residual activity [4] 96% | residual activity [5] 100% | residual activity [6] 100% | residual activity [7] 72% | residual activity [8] 100% | residual activity [9] 90% | residual activity [10] 86% | residual activity [11] 100% | residual activity [12] 81% | residual activity [13] 100% | residual activity [14] 100% | residual activity [15] 100% | residual activity [16] 96% | residual activity [17] 100% | residual activity [18] 100% | residual activity [19] 83% | residual activity [20] 95% | residual activity [21] 100% | residual activity [22] 84% | residual activity [23] 100% | residual activity [24] 82% | residual activity [25] 100% | residual activity [26] 100% | residual activity [27] 79% | residual activity [28] 90% | residual activity [29] 100% | residual activity [30] 85% | residual activity [31] 61% | residual activity [32] 90% | residual activity [33] 100% | residual activity [34] 94% | residual activity [35] 62% | residual activity [36] 71% | residual activity [37] 81% | inhibition [38] 20.4% | inhibition [39] -2.44%

CS(=O)(=O)NCC[C@H](NC(=O)c1cncc2c1cnn2-c1ccc(F)cc1)c1ccnc(S(C)(=O)=O)c1 [BI 9307]
inactive: residual activity [1] 100% | residual activity [2] 93% | residual activity [3] 100% | residual activity [4] 93% | residual activity [5] 100% | residual activity [6] 100% | residual activity [7] 99% | residual activity [8] 100% | residual activity [9] 100% | residual activity [10] 99% | residual activity [11] 100% | residual activity [12] 100% | residual activity [13] 100% | residual activity [14] 100% | residual activity [15] 100% | residual activity [16] 100% | residual activity [17] 100% | residual activity [18] 100% | residual activity [19] 100% | residual activity [20] 80% | residual activity [21] 83% | residual activity [22] 100% | residual activity [23] 99% | residual activity [24] 100% | residual activity [25] 100% | residual activity [26] 100% | residual activity [27] 100% | residual activity [28] 100% | residual activity [29] 93% | residual activity [30] 85% | residual activity [31] 100% | residual activity [32] 87% | residual activity [33] 100% | residual activity [34] 82% | residual activity [35] 100% | residual activity [36] 74% | residual activity [37] 100% | inhibition [38] 11.8% | inhibition [39] 3.49%
